The values below come from patent US20250354096A1, “IN VITRO DEVICE FOR VASCULARIZED MICROFLUIDIC MODELING OF OSTEOCHONDRAL UNIT” (CFD Research Corporation, priority 2024, published 2025).

The test system of experiment [1] is MMPs (catabolic genes related to OA) in bone and cartilage channels. In words: qPCR of MMP changes in OC device after defined inflammatory cytokines and drug candidate. It is filed as cell-based, human. The settings on record: combination of defined inflammatory cytokines for 24 hours, then Tyrphostin-9; versus no treatment and cytokine alone; FIGS. 11A-11F. An excerpt:
The qPCR data from extracted cells was obtained from the cells that can be individually extracted on a per-channel basis so that tissues can be analyzed separately. […] Statistical significance determined by Kruskal-Wallis non-parametric test followed by Dunn's post hoc. * p<0.05, ** p<0.01, and *** p<0.001. FIGS. 10A, 10C, and 10E show bone. FIGS. 10B, 10D, and 10F show cartilage.
FIGS. 11A-11F include data that show the MMP changes in response to the combination of defined cytokines and a drug candidate. Devices were exposed to a combination of defined inflammatory cytokines for 24 hours. After 24 hours, the devices were exposed to either fresh medium without cytokines, or to Tyrphostin-9 (TY9), a candidate compound with potential anti-inflammatory effects under consideration as a palliative for osteoarthritis (OA). […] Thus, the device can be used to screen for drugs to treat OA.

Experiment [2] deals with tri-culture of hMSC derived chondrocytes, hMSC derived osteoblasts and HUVEC. Description: Inflammatory assay: oxidative stress (CellROX Orange ROS) in tri-culture OC device. It is filed as cell-based, human. The note with it: 100 ng/mL LPS perfused into channel 3, no RAP; 4 hours without flow; versus control; n=3; FIG. 8. On the procedure: In the tri-culture device, OA-like cues were supplied to observe i) oxidative stress induced by LPS conditioning, and ii) the reduction of the oxidative stress in the simultaneous presence of LPS and the anti-inflammatory drug Rapamycin (RAP). Thus, three conditions were investigated: no insult (control,-LPS-RAP), insult (+LPS−RAP), and insult plus treatment (+LPS+RAP). For the insult, the medium was exchanged in established devices with 100 ng/mL LPS perfused into channel 3 to maximize inflammation across the device by supplying LPS in the closest proximity to both bone and vasculature. […]
Resultant oxidative stress was measured by image processing after four hours by the CellROX™ Orange Reactive Oxygen Species Detection Kit (Thermo Fisher), a fluorometric reactive oxygen species (ROS) assay, according to the manufacture's protocol. […] The same microscope was used to capture images for each experiment and exposure and other microscope settings were kept constant to allow quantitative comparisons between micrographs. Quantitative measurement of relative ROS was conducted by image analysis via ImageJ and Matlab®. Briefly, for each condition (i.e., i)-LPS-RAP; ii)+LPS-RAP; iii)+LPS+RAP) images were split into three regions of interest (ROIs), representing the three channel of the devices (vasculature, bone, cartilage), that were separately analyzed. […]

As for `CC(C)(C)c1cc(C=C(C#N)C#N)cc(C(C)(C)C)c1O` [Tyrphostin-9], the “MMP changes (fold change) / inflammatory condition” value in experiment [1] is “inflammatory condition is improved”.

For lipopolysaccharide [LPS], the “oxidative stress of the cells (relative ROS, normalized image intensity)” value in experiment [2] is given as “increases the oxidative stress of the cells in all the compartment”.
